Measured values published in ChEMBL document CHEMBL3393050, “Fine tuning of 4,6-bisphenyl-2-(3-alkoxyanilino)pyrimidine focusing on the activity-sensitive aminoalkoxy moiety for a therapeutically useful inhibitor of receptor for advanced glycation end products (RAGE)” (Bioorg Med Chem, 2015).
Calls of active or inactive are those of the source. The calls are words filed in the database; no cut-off is given here.

Key:
[1] = target: Advanced glycosylation end product-specific receptor (Homo sapiens) (UniProt Q15109); assay: Inhibition of biotinylated human RAGE assessed as bound amyloid beta level at 20 uM after 60 mins by ELISA relative to control; conditions: for residual binding, % of control: values are per cent of control
Chain of Advanced glycosylation end product-specific receptor (Homo sapiens) (Q15109 whole entry): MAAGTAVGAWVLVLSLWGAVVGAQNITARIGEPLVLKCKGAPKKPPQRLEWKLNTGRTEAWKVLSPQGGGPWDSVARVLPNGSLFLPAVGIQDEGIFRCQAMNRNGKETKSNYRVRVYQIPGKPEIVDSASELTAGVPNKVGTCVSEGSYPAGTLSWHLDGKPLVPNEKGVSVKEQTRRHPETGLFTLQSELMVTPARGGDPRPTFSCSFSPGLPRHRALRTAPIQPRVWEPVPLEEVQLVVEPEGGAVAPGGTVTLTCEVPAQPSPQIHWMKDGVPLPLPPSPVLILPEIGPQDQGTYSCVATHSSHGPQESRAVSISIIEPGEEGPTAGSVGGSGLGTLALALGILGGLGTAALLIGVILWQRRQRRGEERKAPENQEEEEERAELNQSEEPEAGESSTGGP

[2] = Kinetic solubility in DMSO solution at pH 4 by nephelometry; type: physicochemical; conditions: read-out: Kinetic_solubility
[3] = Kinetic solubility in DMSO solution at pH 7.4 by nephelometry; type: physicochemical; conditions: read-out: Kinetic_solubility

residual binding, % of control [1]	inhibition [1]	Compound	also measured
84%	–	CCN(CC)CCCOc1cccc(Nc2nc(-c3ccc(Cl)cc3)cc(-c3ccc(Cl)cc3)n2)c1	–
–	inactive	CONC(=O)CCOc1cccc(Nc2nc(-c3ccc(Cl)cc3)cc(-c3ccc(Cl)cc3)n2)c1	–
–	–	CCN(CC)CCOc1cccc(Nc2nc(-c3ccc(Cl)cc3)cc(-c3ccc(Cl)cc3)n2)c1.Cl	solubility kinetic [2]: 372 µM
48%	–	COC1CCCN(CCOc2cccc(Nc3nc(-c4ccc(Cl)cc4)cc(-c4ccc(Cl)cc4)n3)c2)C1 (stereo unspecified)	–
–	inactive	Clc1ccc(-c2cc(-c3ccc(Cl)cc3)nc(Nc3cccc(OCCN4CCSCC4)c3)n2)cc1	–
114%	–	Clc1ccc(-c2cc(-c3ccc(Cl)cc3)nc(Nc3cccc(OCCN4CCCC4)c3)n2)cc1	–
46%	–	CC(C)(C)OC(=O)NC1CCN(CCOc2cccc(Nc3nc(-c4ccc(Cl)cc4)cc(-c4ccc(Cl)cc4)n3)c2)C1 (stereo unspecified)	–
24%	–	CN(C)CCOc1cccc(Nc2nc(-c3ccc(Cl)cc3)cc(-c3ccc(Cl)cc3)n2)c1	–
–	inactive	O=C1CCCN1CCOc1cccc(Nc2nc(-c3ccc(Cl)cc3)cc(-c3ccc(Cl)cc3)n2)c1	–
143%	–	CN(C)C1CCN(CCOc2cccc(Nc3nc(-c4ccc(Cl)cc4)cc(-c4ccc(Cl)cc4)n3)c2)C1.Cl (stereo unspecified)	solubility kinetic [3]: 28.2 µM; solubility kinetic [2]: > 500 µM
52%	–	OC1CCCN(CCOc2cccc(Nc3nc(-c4ccc(Cl)cc4)cc(-c4ccc(Cl)cc4)n3)c2)C1 (stereo unspecified)	–
–	inactive	O=C(O)CCOc1cccc(Nc2nc(-c3ccc(Cl)cc3)cc(-c3ccc(Cl)cc3)n2)c1	–
–	inactive	CON(C)C(=O)CCOc1cccc(Nc2nc(-c3ccc(Cl)cc3)cc(-c3ccc(Cl)cc3)n2)c1	–
–	inactive	Clc1ccc(-c2cc(-c3ccc(Cl)cc3)nc(Nc3cccc(OCCN4CCOCC4)c3)n2)cc1	–
–	inactive	O=C1CCN(CCOc2cccc(Nc3nc(-c4ccc(Cl)cc4)cc(-c4ccc(Cl)cc4)n3)c2)CC1	–
71%	–	CN1CCN(CCOc2cccc(Nc3nc(-c4ccc(Cl)cc4)cc(-c4ccc(Cl)cc4)n3)c2)CC1	–
74%	–	CN1CCN(c2cccc(Nc3nc(-c4ccc(Cl)cc4)cc(-c4ccc(Cl)cc4)n3)c2)CC1	–
–	inactive	CCOCCOc1cccc(Nc2nc(-c3ccc(Cl)cc3)cc(-c3ccc(Cl)cc3)n2)c1	–
–	inactive	COC(=O)CCOc1cccc(Nc2nc(-c3ccc(Cl)cc3)cc(-c3ccc(Cl)cc3)n2)c1	–
101%	–	CCN(CCO)CCOc1cccc(Nc2nc(-c3ccc(Cl)cc3)cc(-c3ccc(Cl)cc3)n2)c1	–
106%	–	NC1CCN(CCOc2cccc(Nc3nc(-c4ccc(Cl)cc4)cc(-c4ccc(Cl)cc4)n3)c2)C1 (stereo unspecified)	–
–	inactive	CO/N=C/CCOc1cccc(Nc2nc(-c3ccc(Cl)cc3)cc(-c3ccc(Cl)cc3)n2)c1	–
88%	–	CCN(CCOC)CCOc1cccc(Nc2nc(-c3ccc(Cl)cc3)cc(-c3ccc(Cl)cc3)n2)c1	–
112%	–	Clc1ccc(-c2cc(-c3ccc(Cl)cc3)nc(Nc3cccc(OCCN4CCCCC4)c3)n2)cc1	–
